Experimental data as given in patent US5589489A, “Cyclic amide derivatives for treating asthma” (Zeneca Limited, priority 1993, dated 1996).
Counter-ions that a name gives are not always drawn.

Target: T1, guinea pig trachea (Cavia porcellus, UniProt Q64077)
T1 construct: functional assay in guinea pig trachea; from tissue; host or cells: guinea pig trachea (male animals), tracheal rings
T1 sequence (Q64077 1-402): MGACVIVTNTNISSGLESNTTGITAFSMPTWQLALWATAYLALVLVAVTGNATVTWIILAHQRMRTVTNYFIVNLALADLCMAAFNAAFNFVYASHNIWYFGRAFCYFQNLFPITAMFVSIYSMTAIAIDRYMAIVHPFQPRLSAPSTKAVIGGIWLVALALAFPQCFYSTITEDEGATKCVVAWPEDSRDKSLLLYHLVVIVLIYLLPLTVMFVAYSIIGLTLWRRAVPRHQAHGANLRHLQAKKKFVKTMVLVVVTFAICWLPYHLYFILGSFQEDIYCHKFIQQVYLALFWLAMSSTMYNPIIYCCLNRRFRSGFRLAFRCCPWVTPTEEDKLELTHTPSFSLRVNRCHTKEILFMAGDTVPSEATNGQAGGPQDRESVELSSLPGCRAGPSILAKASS
Experiment: Guinea Pig Assay (Test B), functional antagonism of NKA or [β-ala8]-NKA(4-10) in guinea pig trachea
Format: cell-based
Conditions: read-out: pKB (-log molar KB, apparent dissociation constant) (converted)
Description: The chosen agonist is refered to as AG throughout the description.
Male guinea pigs are killed by a sharp blow to the back of the head. The trachea are removed, trimmed of excess tissue and divided into two segments. Each segment is suspended as a ring between stainless steel stirrups in water-jacketed (37.5° C.) tissue baths containing a physiological salt solution of the following composition (mM): NaCl, 119; KCl 4.6; CaCl2, 1.8; MgCl2, 0.5; NaH2 PO4, 1; NaHCO3, 25; glucose, 11; thiorphan, 0.001; and indomethacin, 0.005; gassed continuously with 95% O2 -%5 CO2. […] Contractile responses are measured on a Grass polygraph via Grass FT-03 force transducers.
Tissues are challenged repetitively with a single concentration of AG (10 nM) with intervening 30 min periods with washing to allow the tension to return to baseline levels. […] Percent inhibition is determined when a Compound produces a statistically significant (p<0.05) reduction of the contraction and is calculated using the second contractile response as 100%.
Potencies of selected Compounds are evaluated by calculating apparent dissociation constants (KB) for each concentration tested using the standard equation: […]
where dose ratio=antilog[(AG -log molar EC50 without Compound)-(AG -log molar EC50 with Compound)]. The KB values may be converted to the negative logarithms and expressed as -log molar KB (i.e. pKB). […]

Compound: CN1C(=O)c2ccccc2[C@H]1[C@@H](CCN1CCC(O)(c2ccccc2)CC1)c1ccc(Cl)c(Cl)c1 (single isomer, unassigned) [Example 4, (-)-(3R/3S)-3-[(1S/1R)-1-(3,4-dichlorophenyl)-3-(4-hydroxy-4-phenylpiperidino)propyl]-2-methyl-2,3-dihydroisoindol-1-one hydrochloride]
- Kb: 20 nM
